What was measured:
[1] = MTT cell viability test on human astrocytes; type: cell-based; settings: human; 24 h; at 0.15 and 0.25 mg/mL; read-out: decline in cell viability in comparison to the control level
Method: The studies were performed on a commercially-available astrocyte cell line isolated from human cerebral cortex (ScienCell Research Laboratories, San Diego, CA, USA; Cat no. 1800). The cells (passage 7–8) were seeded into a 96-well plate at an amount of 10,000 cells/well and kept in accordance with the ScienCell Research Laboratories’ protocol, i.e., in astrocyte medium supplemented with 2% fetal bovine serum, 10% astrocyte growth supplement and 1% penicillin/streptomycin solution, in an atmosphere with 5% CO2 at 37 °C. The cells were allowed to grow for 24 h and then treated with increasing concentrations of test compounds (0.01–0.25 mg/mL) for 24 and 72 h. Astrocytes in the medium on each plate (regardless of the factors tested) were used as a positive control.
The viability of the astrocyte cell line was determined calorimetrically using 3-(4,5-dimethylthazol-2-yl)-2,5-diphenyltetrazolium bromide (MTT; Sigma-Aldrich Chemical Co. Ltd., Saint Louis, MO, USA) as described earlier. […] After the incubation time (24 or 72 h) with examined drugs, 50 μL MTT solution (1 mg/mL) was added to each well of the plate for another 4 h. The method is based on the reduction of a yellow tetrazolium salt (MTT) into purple formazan crystals by mitochondrial succinate-tetrazolium reductase system which is metabolically active in viable cells. At the end of the experiment, the cells were treated with 100 μL dimethyl sulphoxide, which enabled the release of the reaction product.
The absorbance was measured at 570 nm using a BioTek EL×800 microplate reader (BioTek, Winooski, Vermont, USA) and results were expressed as a percentage of the absorbance measured in control cells. The obtained values were plotted against different concentrations of each compound to calculate the viability inhibition concentration at 50% (IC50) using GraphPad Prism 6.07 (GraphPad Software, Inc., San Diego, CA, USA). The experiment was repeated in quadruplicate.
For the cytotoxicity assessment in the MTT assays, each test drug was used at 8 concentrations (range: 0.01–0.25 mg/mL).

[2] = molecular target: T1, human MAO B (hMAO B) (Homo sapiens, UniProt P27338); test: modality of hMAO B inhibition (Michaelis-Menten / Lineweaver-Burk); type: biochemical
T1 sequence (P27338 1-520): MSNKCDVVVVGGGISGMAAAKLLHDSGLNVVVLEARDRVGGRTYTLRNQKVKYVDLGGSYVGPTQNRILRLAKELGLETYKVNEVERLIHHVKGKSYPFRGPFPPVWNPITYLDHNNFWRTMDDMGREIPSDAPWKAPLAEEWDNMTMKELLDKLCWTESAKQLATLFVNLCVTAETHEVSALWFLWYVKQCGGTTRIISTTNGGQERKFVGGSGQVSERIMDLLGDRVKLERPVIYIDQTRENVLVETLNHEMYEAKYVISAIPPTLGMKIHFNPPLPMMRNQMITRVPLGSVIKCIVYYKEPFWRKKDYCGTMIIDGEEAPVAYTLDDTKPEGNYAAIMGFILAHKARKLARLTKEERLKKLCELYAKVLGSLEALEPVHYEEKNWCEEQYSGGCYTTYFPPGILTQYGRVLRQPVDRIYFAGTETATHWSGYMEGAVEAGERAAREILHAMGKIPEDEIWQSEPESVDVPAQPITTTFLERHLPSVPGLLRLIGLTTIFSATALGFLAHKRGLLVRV
Method: Modality of hMAO B inhibition was evaluated for compounds 9 and 13 and the reference safinamide according to the method described previously. Three concentrations of inhibitors, corresponding to their IC20, IC50 and IC80 values, were used. Each experiment was performed in triplicate. KM and Vmax values were calculated from Michaelis–Menten curves by nonlinear regression from the substrate. Lineweaver–Burk plots were calculated using linear regression in GraphPad Prism 6.07 (GraphPad Software, San Diego, CA, USA).
For testing modality of enzyme inhibition, we used three concentrations of inhibitors that corresponded to their IC20, IC50 and IC80 values. Substrate (p-tyramine) was used at concentrations: 0.05, 0.1, 0.5, 1.0, 1.5 and 2.0 mM.

[3] = parallel artificial membrane permeability assay (PAMPA); type: in vitro ADME
[4] = molecular target: T1, human MAO B (hMAO B); test: fluorometric MAO assay (p-tyramine substrate); type: biochemical; settings: fluorometric MAO assay; mean ± SEM of 2–4 independent experiments
Method: The precise method was described in [6]. First, compounds 4–32 were screened for hMAO B inhibitory activity at 1 μM concentration by the fluorometric method. Para-tyramine (200 μM) was used as a substrate for the enzyme and safinamide (1 μM) was used as a reference compound. […] Each experiment was performed in duplicate.
All compounds were first screened for hMAO B inhibitory activity at the concentration of 1 μM. […] Based on the results, we selected compounds 9 and 13 for further analysis.

[5] = molecular target: human histamine H3 receptor (hH3R) (Homo sapiens, UniProt Q9Y5N1); test: [3H]Nα-methylhistamine radioligand binding assay in CHO-K1 cells stably expressing hH3R; set-up: expressed in transfected cells; host or cells: CHO-K1; settings: CHO-K1 cells; [3H]Nα-methylhistamine; mean ± SEM of three independent experiments; read-out: hH3R Ki [nM] ± SEM
Sequence of human histamine H3 receptor (hH3R) (Q9Y5N1 whole entry): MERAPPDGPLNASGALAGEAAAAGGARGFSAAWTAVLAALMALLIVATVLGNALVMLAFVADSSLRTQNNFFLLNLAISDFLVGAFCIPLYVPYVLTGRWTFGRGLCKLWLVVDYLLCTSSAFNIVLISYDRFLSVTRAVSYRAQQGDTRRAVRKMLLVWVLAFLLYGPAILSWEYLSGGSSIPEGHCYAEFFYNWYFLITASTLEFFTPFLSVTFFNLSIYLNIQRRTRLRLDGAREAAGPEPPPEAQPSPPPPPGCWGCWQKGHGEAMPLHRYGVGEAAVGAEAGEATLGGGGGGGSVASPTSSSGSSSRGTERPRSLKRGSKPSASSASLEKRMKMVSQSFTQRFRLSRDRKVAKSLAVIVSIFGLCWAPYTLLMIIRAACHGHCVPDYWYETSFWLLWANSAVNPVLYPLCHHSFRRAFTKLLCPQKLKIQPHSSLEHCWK
Method: Affinity to hH3R stably expressed in CHO-K1 [6] or HEK293 [11] cells was evaluated in a radioligand binding assay as described previously. Briefly, 10 mM stock solutions of the test compounds in DMSO were prepared. Each compound was tested at eight concentrations ranging from 10^−5 to 10^−12 M (final concentration). All assays were carried out in duplicate. […] The radioactivity was counted in MicroBeta 2 [6] or MicroBeta Trilux counter (PerkinElmer). Data were fitted to a one-site curve-fitting equation with Prism 6 (GraphPad Software, San Diego, CA, USA) and Ki values were calculated from IC50 values (from at least three experiments performed in duplicates) according to the Cheng−Prusoff equation [12].
Affinity for hH3R was evaluated in a radioligand binding assay using [^3H]N^α-methylhistamine as radioligand in CHO K1 or HEK293 cells stably expressing hH3R as described previously. […] Then, those with at least 50% inhibition for hH3R were selected for further testing (Ki evaluation). […] Compounds were tested in the binding assay in HEK293 cells.

[6] = inhibitor at IC20, IC50, IC80, p-tyramine 0.05–2.0 mM

CC1CCCN1CCCOc1ccc(C(C)(C)C)cc1.O=C(O)C(=O)O (stereo not drawn) [Compound 13, 1-(3-(4-(tert-Butyl)phenoxy)propyl)-2-methylpyrrolidine hydrogen oxalate]
viability at 24 h [1]: > 95% | Affinity (free enzyme vs enzyme-substrate complex) [2]: Free enzyme ≈ enzyme-substrate complex | Mode of inhibition from kinetic values and LB plot [2]: noncompetitive inhibition | Lines on LB plot ([2]; Lineweaver–Burk double-reciprocal plot): Lines intersect to the left of y-axis directly on x-axis | app. KM [2, 6]: No effect ^a | app. Vmax [2, 6]: ↓ curvilinearly with ↑ [I] | app. Vmax/app. KM [2, 6]: ↓ curvilinearly with ↑ [I] | permeability in PAMPA, in words [3]: high permeability | Pe (×10^−6cm/s) ± SD ([3]; PAMPA, triplicate, breakpoint for permeable compounds Pe ≥ 1.5×10^−6 cm/s): 16.72 ×10^−6cm/s | Papp ([3]; PAMPA, triplicate, breakpoint for permeable compounds Pe ≥ 1.5×10^−6 cm/s, read-out: Pe ± SD): 16.72 ± 0.06 ×10⁻⁶ cm/s | IC50 [4]: 4 ± 0.3 nM | Ki [5]: 25 ± 9 nM

— PMC9607599, “Dual Targeting Ligands—Histamine H3 Receptor Ligands with Monoamine Oxidase B Inhibitory Activity—In Vitro and In Vivo Evaluation” (Pharmaceutics, 2022)
